Data from US6887890B2, “Compounds exhibiting thrombopoietin-like activities” (Chugai Seiyaku Kabushiki Kaisha, priority 2000, dated 2005).

Tested on: Mpl-expressing Ba/F3 cell line (human mpl gene)
Experiment: Measurement of thrombopoietin (TPO) activity: viable cell count of Mpl-expressing Ba/F3 cell line (Cell Count Reagent SF, absorbance 450 nm)
Assay type: cell-based
Details: for Concentration: concentration corresponding to the maximum TPO activity value; for TPO activity: maximum TPO activity value, ODt/ODs×100 relative to maximum reaction of human TPO, Mpl-expressing Ba/F3 cells cultured at 37° C. for one day, at the concentration given
Description: The TPO activities of the compounds of the invention obtained in the aforementioned examples were measured by the procedure described below, for evaluation of their thrombopoietic effects.
Establishment of Mpl-expressing Ba/F3 Cell Line
The human mpl gene was cloned from cDNAs of the human erythroleukemia cell line HEL by PCR, and was incorporated into pCOS1 to construct an expression vector. The expression vector was transfected into Ba/F3 cells by electroporation method, and an Mpl-expressing Ba/F3 clone was established.
Measurement of Thrombopoietin (TPO) Activity
The cytokine-eliminated Mpl-expressing Ba/F3 line was plated in a 96-well plate at 25,000 cells/well. DMSO solutions containing the compounds obtained in each of the examples were then prepared to different specified concentration ranges, and each solution was added to the Mpl-expressing Ba/F3 cell line (final DMSO concentration: ≦0.1%), and the cell were cultured at 37° C. for one day. Human TPO (by R&D Systems or Genzyme) was used as a positive control.
Each of the cultured Mpl-expressing Ba/F3 cell lines was subjected to absorbance measurement at a wavelength of 450 nm (reference wavelength: 620 nm), corresponding to the viable cell count, using Cell Count Reagent SF (by Nacalai Tesque Inc.). The TPO activity of each compound for the Mpl-expressing Ba/F3 cell line was determined based on the following formula. TPO activity (%)=ODt/ODs×100
ODs: Absorbance at maximum reaction of human TPO (wavelength: 450-620 nm).
ODt: Absorbance of test solution (wavelength: 450-620 nm).
Tables 1 and 2 show the maximum TPO activity values and the corresponding concentrations of each compound, as obtained by the test described above.

Row | SMILES | Concentration | TPO activity
1 | Cl.NCCCC[C@@H](NC(=O)Cc1ccccn1)C(=O)Nc1ccc(C(c2ccc(NC(=O)[C@@H](CCCCN)NC(=O)Cc3ccccn3)cc2)c2ccc(NC(=O)[C@@H](CCCCN)NC(=O)Cc3ccccn3)cc2)cc1 [Example 172, tris[4-[N-α-[2-(pyridin-2-yl)acetyl]-D-lysyl]aminophenyl]methane hydrochloride] | 100 µM | 24.4%
2 | COc1ccc2[nH]c(C)c(CC(=O)N[C@@H](CCCCN)C(=O)Nc3ccc(C(c4ccc(NC(=O)[C@H](CCCCN)NC(=O)Cc5c(C)[nH]c6ccc(OC)cc56)cc4)c4ccc(NC(=O)[C@H](CCCCN)NC(=O)Cc5c(C)[nH]c6ccc(OC)cc56)cc4)cc3)c2c1.Cl [Example 6, tris[4-[N-α-[2-(5-methoxy-2-methyl-1H-indol-3-yl)acetyl]-L-lysyl]aminophenyl]methane hydrochloride] | 25 µM | 17.4%
